{"source": "patent US12590961B2", "about": "“Quantum dot conjugated virus spike protein for cell-based bio-sensing systems and drug screening” (priority 2020, dated 2026)", "test_system": "ACE2-GFP HEK293T cells", "type": "cell-based, human"}
{"smiles": "O=C(N/N=C/c1cc(O)c(O)cc1O)c1cc2ccccc2cc1O", "note": "[Dyngo-4a]", "values": [{"measurement": "blocking of endo(RBD-ACE2), QD608-RBD induced translocation of ACE2-GFP", "value": "robustly blocked"}, {"measurement": "effect on ACE2-GFP localization, compound alone", "value": "did not affect the ACE2-GFP localization"}]}
